Values quoted from earlier work in US20180284402A1, “TOPICAL ANALGESIC PAIN RELIEF FORMULATIONS, MANUFACTURE AND METHODS OF USE THEREOF” (priority 2016, published 2018).
Like-named read-outs stand apart in the source and are kept apart here.

Experiments:
[1] = target: T1, hTRPA1 (Homo sapiens, UniProt O75762)
[2] = target: human TRPM8 (hTRPM8) (Homo sapiens, UniProt Q7Z2W7); conditions: Takaishi 2012
[3] = target: hTRPV1 (Homo sapiens, UniProt Q8NER1); conditions: Takaishi 2012
[4] = target: T2, hTRPV2 (Homo sapiens, UniProt Q9Y5S1); conditions: Takaishi 2012
T2 sequence (Q9Y5S1 1-764): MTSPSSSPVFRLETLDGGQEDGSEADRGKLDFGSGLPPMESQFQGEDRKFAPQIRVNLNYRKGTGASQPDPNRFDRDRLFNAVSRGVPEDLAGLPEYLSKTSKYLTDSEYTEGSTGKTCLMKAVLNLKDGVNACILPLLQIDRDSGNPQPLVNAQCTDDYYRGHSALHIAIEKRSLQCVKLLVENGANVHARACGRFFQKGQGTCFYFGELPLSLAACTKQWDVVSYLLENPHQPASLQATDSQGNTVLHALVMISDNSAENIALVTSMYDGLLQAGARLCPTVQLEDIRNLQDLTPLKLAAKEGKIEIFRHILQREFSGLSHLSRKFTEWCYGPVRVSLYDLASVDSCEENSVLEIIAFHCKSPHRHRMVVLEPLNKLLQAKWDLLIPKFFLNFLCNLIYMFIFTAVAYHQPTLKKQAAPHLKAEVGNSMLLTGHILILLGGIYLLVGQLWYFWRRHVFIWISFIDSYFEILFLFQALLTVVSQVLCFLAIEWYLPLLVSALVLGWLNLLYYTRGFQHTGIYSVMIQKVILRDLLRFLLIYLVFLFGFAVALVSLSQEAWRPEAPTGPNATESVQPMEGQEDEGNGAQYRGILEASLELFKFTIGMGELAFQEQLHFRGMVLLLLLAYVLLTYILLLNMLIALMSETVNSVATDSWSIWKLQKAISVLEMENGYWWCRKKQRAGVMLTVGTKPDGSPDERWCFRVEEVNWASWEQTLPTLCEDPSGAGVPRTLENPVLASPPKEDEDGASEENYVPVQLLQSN

[5] = target: T1, hTRPA1; conditions: compound at 1 mM; for inhibition of hTRPA1 activation by allyl isothiocyanate (mustard oil): allyl isothiocyanate at 10 uM; for inhibition of hTRPA1 activation by menthol: menthol at 1 mM
[6] = tested on: TRPV1; conditions: Morales-Lazaro 2016
[7] = tested on: pain and itch responses; conditions: mice

T1 sequence (O75762 whole entry): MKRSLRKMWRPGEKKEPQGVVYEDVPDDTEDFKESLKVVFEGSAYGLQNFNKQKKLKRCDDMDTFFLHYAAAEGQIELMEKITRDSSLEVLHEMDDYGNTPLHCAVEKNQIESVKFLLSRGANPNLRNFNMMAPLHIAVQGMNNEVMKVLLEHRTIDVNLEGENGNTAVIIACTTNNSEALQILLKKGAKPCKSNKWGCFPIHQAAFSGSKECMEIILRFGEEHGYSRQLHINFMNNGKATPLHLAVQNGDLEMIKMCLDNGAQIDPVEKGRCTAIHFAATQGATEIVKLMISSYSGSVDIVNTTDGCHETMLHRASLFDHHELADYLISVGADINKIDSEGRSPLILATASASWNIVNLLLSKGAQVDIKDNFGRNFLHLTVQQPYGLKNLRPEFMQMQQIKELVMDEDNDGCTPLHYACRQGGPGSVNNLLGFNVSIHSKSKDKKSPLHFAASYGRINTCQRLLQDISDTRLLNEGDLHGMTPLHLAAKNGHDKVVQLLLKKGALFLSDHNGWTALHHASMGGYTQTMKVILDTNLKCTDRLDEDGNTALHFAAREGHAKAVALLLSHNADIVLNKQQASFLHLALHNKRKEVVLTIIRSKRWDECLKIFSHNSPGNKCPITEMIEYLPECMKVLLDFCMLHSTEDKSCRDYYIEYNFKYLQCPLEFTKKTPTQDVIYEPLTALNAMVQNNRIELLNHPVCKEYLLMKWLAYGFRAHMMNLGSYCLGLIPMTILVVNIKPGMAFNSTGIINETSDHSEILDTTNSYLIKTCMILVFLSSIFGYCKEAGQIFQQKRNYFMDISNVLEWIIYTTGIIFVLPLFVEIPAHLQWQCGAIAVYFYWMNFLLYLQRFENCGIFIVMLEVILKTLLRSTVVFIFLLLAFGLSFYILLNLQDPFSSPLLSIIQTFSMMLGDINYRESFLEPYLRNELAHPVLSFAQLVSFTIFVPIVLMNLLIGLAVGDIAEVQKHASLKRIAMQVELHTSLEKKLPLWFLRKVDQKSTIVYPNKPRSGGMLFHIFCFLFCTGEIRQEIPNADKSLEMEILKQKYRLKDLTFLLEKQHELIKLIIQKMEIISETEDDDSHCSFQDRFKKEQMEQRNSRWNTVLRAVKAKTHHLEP
Chain of human TRPM8 (hTRPM8) (Q7Z2W7 whole entry): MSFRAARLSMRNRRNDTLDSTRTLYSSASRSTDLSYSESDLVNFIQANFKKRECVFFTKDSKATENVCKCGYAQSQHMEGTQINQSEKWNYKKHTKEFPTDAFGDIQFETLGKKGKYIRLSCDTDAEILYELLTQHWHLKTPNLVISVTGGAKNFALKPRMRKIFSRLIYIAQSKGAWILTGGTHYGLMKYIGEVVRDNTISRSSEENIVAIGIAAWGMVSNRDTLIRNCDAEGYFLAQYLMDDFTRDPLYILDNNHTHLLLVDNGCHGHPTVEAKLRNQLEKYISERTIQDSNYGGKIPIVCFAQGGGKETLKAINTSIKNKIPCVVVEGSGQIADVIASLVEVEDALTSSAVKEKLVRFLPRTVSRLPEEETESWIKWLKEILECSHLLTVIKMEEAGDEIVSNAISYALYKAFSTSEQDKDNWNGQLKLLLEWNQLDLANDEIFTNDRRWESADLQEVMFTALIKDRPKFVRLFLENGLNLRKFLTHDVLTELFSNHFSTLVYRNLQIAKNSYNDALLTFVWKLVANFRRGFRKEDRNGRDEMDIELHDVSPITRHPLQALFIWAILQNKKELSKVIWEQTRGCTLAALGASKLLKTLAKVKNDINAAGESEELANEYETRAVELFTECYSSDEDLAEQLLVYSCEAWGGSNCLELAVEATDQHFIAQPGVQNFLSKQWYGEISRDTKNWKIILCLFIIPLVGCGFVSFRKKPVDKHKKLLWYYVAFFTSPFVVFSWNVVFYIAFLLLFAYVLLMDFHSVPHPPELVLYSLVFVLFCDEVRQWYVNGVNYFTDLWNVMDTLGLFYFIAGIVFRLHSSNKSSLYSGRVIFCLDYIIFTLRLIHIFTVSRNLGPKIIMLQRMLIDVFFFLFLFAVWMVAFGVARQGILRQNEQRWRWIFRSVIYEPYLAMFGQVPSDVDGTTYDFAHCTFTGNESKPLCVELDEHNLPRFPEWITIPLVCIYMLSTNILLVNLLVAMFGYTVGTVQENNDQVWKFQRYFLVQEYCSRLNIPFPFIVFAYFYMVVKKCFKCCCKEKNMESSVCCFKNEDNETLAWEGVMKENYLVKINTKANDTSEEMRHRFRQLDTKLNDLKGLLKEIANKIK
Chain of hTRPV1 (Q8NER1 whole entry): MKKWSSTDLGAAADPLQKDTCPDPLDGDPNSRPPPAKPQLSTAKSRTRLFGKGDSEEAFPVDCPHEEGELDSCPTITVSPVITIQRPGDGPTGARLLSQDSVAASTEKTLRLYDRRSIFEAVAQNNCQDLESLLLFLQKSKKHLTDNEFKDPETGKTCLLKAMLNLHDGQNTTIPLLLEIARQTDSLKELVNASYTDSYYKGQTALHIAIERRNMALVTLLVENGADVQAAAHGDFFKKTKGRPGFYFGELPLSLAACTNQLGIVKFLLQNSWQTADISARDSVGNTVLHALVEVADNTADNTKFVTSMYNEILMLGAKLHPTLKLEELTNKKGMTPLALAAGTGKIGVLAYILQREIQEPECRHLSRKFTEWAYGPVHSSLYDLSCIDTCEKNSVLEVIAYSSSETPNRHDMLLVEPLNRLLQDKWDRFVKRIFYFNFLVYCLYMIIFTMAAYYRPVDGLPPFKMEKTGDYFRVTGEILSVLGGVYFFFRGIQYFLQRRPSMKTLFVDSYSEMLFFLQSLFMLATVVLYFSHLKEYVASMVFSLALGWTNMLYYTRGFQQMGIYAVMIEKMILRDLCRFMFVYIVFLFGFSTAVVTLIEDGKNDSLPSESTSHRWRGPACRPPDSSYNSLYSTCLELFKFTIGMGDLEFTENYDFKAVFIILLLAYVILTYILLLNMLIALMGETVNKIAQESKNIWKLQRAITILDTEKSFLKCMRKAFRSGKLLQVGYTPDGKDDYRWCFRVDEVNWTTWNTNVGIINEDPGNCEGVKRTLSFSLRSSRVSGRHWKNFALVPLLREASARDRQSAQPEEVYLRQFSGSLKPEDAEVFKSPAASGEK

| Compound | activation of hTRPA1 ([1]; Takaishi 2014) | inhibition of hTRPA1 activation by allyl isothiocyanate (mustard oil) [5] | inhibition of hTRPA1 activation by menthol [5] | further results |
| --- | --- | --- | --- | --- |
| CC12CCC(CC1)C(C)(C)O2 [1,8-cineole] | did not activate | – | – | activation of hTRPA1 ([1]; Takaishi 2012): without activating; activation of human TRPM8 (hTRPM8) [2]: activates; activation of hTRPV1 [3]: did not activate; activation of hTRPV2 [4]: did not activate |
| CC1(C)[C@@H]2CC[C@@]1(C)[C@](C)(O)C2 [2-methylosoborneol] | did not activate | completely inhibited | completely inhibited | – |
| CC1(C)C2CCC1(C)C(O)C2 (stereo not drawn) [borneol] | did not activate | completely inhibited | completely inhibited | – |
| CCCCCCCC/C=C\CCCCCCCC(=O)O [oleic acid] | – | – | – | TRPV1 activity [6]: inhibited; pain and itch responses [7]: inhibited |

The next lines start with results.

| activation of hTRPA1 ([1]; Takaishi 2014) | inhibition of hTRPA1 activation by allyl isothiocyanate (mustard oil) [5] | inhibition of hTRPA1 activation by menthol [5] | Compound | further results |
| --- | --- | --- | --- | --- |
| did not activate | – | – | CC12CCC(CC1=O)C2(C)C (stereo not drawn) [camphor] | – |
| did not activate | completely inhibited | completely inhibited | CC12CCC(C1)C(C)(C)C2O (stereo not drawn) [fenchyl alcohol] | – |
| did not activate | – | – | O=C1CC2CC[C@H]1C2 [norcamphor] | – |
